What all share (type): cell-based, Periplaneta americana
Assay [1] concerns cockroach Dorsal Unpaired Median (DUM) neurons. The assay can be described thus: Whole-cell patch-clamp, current-clamp: DUM neuron spontaneous electrical activity. As to conditions: IR3535 at 10^-8 M; whole-cell configuration. How it is done:
(§1) Experiments were carried out on cockroach Dorsal Unpaired Median (DUM) neurons. Cockroach neuronal preparations are commonly used as biomedical models for vertebrates and invertebrates and DUM neurons are, furthermore, electrophysiologically and pharmacologically well characterized since most of the biophysical and pharmacological properties of ionic currents and receptors underlying and modulating their spontaneous action potentials have been established by using the well-known patch-clamp technique.
Adult male cockroaches, Periplaneta americana (see FIG. 1), are taken from our laboratory colonies, which are maintained under standard conditions (29° C., photoperiod of 12 h light/12 h dark). Animals are immobilized dorsal-side up on a dissection dish. The dorsal cuticle, gut and some dorso-longitudinal muscles are removed to allow access to the ventral nerve cord. The abdominal nerve cord and its terminal abdominal ganglion (TAG), carefully dissected under a binocular microscope, are placed in normal saline. Animal care and handling procedures are in accordance with French institutional and national health guidelines. […]
Electrical activity and neonicotinoïd-induced inward currents are recorded using the patch clamp technique in the whole-cell recording configuration under current-clamp and voltage-clamp mode, respectively. […] Signals are recorded with an Axopatch 200A amplifier. […]
In general terms: In patch-clamp work, channel activity is measured electrically.

Assay [2] shares this test system. As to conditions: for origin of the intracellular calcium concentration rise: with caffeine, omegaconotoxin, pirenzepine.
The test system is the same in assay [3]. The assay can be described thus: Whole-cell patch-clamp, voltage-clamp: neonicotinoïd-induced inward currents. As to conditions: for inward current amplitude after pretreatment with low concentration of IR3535 (conclusion): DUM neurons pretreated with low concentration of IR3535; for induced inward current, insecticide alone (conclusion): act like agonists. As to the method: as §1
Adult male cockroaches, Periplaneta americana (see FIG. 1), are taken from our laboratory colonies, which are maintained under standard conditions (29° C., photoperiod of 12 h light/12 h dark). Animals are immobilized dorsal-side up on a dissection dish. The dorsal cuticle, gut and some dorso-longitudinal muscles are removed to allow access to the ventral nerve cord. The abdominal nerve cord and its terminal abdominal ganglion (TAG), carefully dissected under a binocular microscope, are placed in normal saline. Animal care and handling procedures are in accordance with French institutional and national health guidelines.
The ventral nerve cord and its terminal abdominal ganglion (TAG) are carefully dissected under a binocular microscope and placed in normal cockroach saline containing (in mM) 200 NaCl, 3.1 KCl, 5 CaCl2, 4 MgCl2, 50 sucrose, and 10 […] (HEPES); pH was adjusted to 7.4 with NaOH. Isolation of adult DUM neuron cell bodies are performed under sterile conditions using enzymatic digestion and mechanical dissociation of the median parts of the TAG as previously described in Lapied et al. (Ionic species involved in the electrical activity of single adult aminergic neurones isolated from sixth abdominal ganglion of cockroach Periplaneta americana J Exp Biol 144:535-49, 1989). The isolated neuron cell bodies are used for recordings 24 h after dissociation.
Electrical activity and neonicotinoïd-induced inward currents are recorded using the patch clamp technique in the whole-cell recording configuration under current-clamp and voltage-clamp mode, respectively. Patch-clamp electrodes are pulled from borosilicate glass capillary tubes (GC150T-10) using a P-97 model puller. Patch pipettes have resistances ranging from 1 to 1.2 MΩ when filled with internal pipette solution. The liquid junction potential between extracellular and intracellular solutions is always corrected before the formation of a giga Ohm seal (>3 GΩ). Signals are recorded with an Axopatch 200A amplifier. […] Under voltage-clamp conditions, DUM neuron somata are voltage-clamped at a steady state holding potential of −50 mV to measure the effects of thiamethoxam or thiacloprid applied alone and after pretreatment with IR3535® (10^−8 M). Experiments are carried out at room temperature.

[4] abbreviates: thiamethoxam 10^-6 M, pretreated with IR3535 10^-8 M.

Like-named read-outs stand apart in the source and are kept apart here.

In the case of `CCCCN(CCC(=O)OCC)C(C)=O` [IR3535®, 3-[N-Butyl-N-acetyl]-aminopropionic acid, ethyl ester], in assay [1], the “effect on membrane potential” value was “significant membrane depolarization” and the “effect on spontaneous action potential discharge frequency” value is “increase of the spontaneous action potential discharge frequency”. The “lower concentration which produces a significant elevation of intracellular calcium concentration” value in assay [2] (DUM neurons) is on record as 10^−8 M. The “origin of the intracellular calcium concentration rise” value in assay [2] (IR3535 at 10^-8 M) is on record as “extracellular calcium through plasma membrane voltage-dependent calcium channels via M1/M3 mAChR sub-type modulation”. Moreover, the “effect on intracellular calcium concentration, zone I” value in assay [2] (IR3535 between 3.10^-9 M and 3.10^-8 M, bath application) is given as “transient increase of intracellular calcium concentration”. Besides, in assay [2] (IR3535 from 10^-7 M to 3.10^-6 M), the “effect on intracellular calcium concentration, zone II” value was “additional elevation of intracellular calcium concentration”. Further, in assay [2] (higher concentrations of IR3535 (10^-5 M)), the “origin of the intracellular calcium concentration rise” value was “both extracellular calcium and calcium released from internal stores”. The “concentration giving the maximum of the zone I intracellular calcium increase” value in assay [2] (zone I (3.10^-9 M to 3.10^-8 M)) is listed as 10^−8 M. Further, in assay [2] (zone III, very high concentration), the “concentration giving the maximum effect on intracellular calcium, zone III” value is listed as 3.10^−5 M.
Turning to `CCN(CC)C(=O)c1cccc(C)c1` [DEET, N,N-diethyl-3-methylbenzamide], in assay [2] (DEET at 10^-7 M (maximum)), the “ratio of emitted fluorescence (340 nm/380 nm), maximum value” was 0.7. Besides, the “ratio of emitted fluorescence (340 nm/380 nm)” value in assay [2] (DEET between 3.10^-8 M and 3.10^-7 M) is reported as “above 0.6”. Moreover, in assay [2] (DEET from 10^-9 M to 10^-7 M), the “effect on intracellular calcium concentration, low concentration range” value is listed as “elevation of the intracellular calcium concentration”. For the same compound, in assay [2] (DEET higher than 10^-7 M), the “effect on intracellular calcium concentration, higher concentrations” value was “important decrease of the intracellular calcium concentration”. In addition, the “concentration giving the maximum elevation of intracellular calcium concentration” value in assay [2] (DEET low concentration range) is 10^−7 M.
As to `N#C/N=C1\SCCN1Cc1ccc(Cl)nc1` [thiacloprid], the “concentration giving the maximum increase of inward current amplitude after IR3535 pretreatment” value in assay [3] (DUM neuron pretreated with IR3535 10^-8 M) was 10^−6 M. For the same compound, the “inward current amplitude after pretreatment with low concentration of IR3535 (conclusion)” value in assay [3] is reported as “more important”. Besides, in assay [3] (alone), the “induced inward current, insecticide alone (conclusion)” value is “inward current with a small amplitude”. The “concentration giving the maximum effect on inward current amplitude, applied alone” value in assay [3] (alone, holding potential -50 mV) was 10^−3 M. Besides, in assay [3] (bath application alone, holding potential -50 mV), the “effect on inward current amplitude, applied alone” value was “dose-dependent increase of the inward current amplitude”. Besides, the “effect on inward current amplitude at higher concentration after IR3535 pretreatment” value in assay [3] (thiacloprid 10^-5 M, pretreated with IR3535 10^-8 M) is “important decrease of the current amplitude”.
On to `CN1COCN(Cc2cnc(Cl)s2)/C1=N\[N+](=O)[O-]` [thiamethoxam], for which the “induced inward current, applied alone” value in assay [3] (10^-6 M alone, holding potential -50 mV, n=3-4) is given as “inward current with small amplitudes”. Besides, the “inward current amplitude after pretreatment with low concentration of IR3535 (conclusion)” value in assay [3] is listed as “more important”. In assay [3] (alone), the “induced inward current, insecticide alone (conclusion)” value is on record as “inward current with a small amplitude”. Moreover, in assay [3] (setting [4]), the “effect of IR3535 pretreatment on induced inward current amplitude” value is “important increase of the thiamethoxam-induced inward current amplitude” and the “mean current amplitude after IR3535 pretreatment relative to applied alone” value is “about 6 fold”.

(Values after patent publication US10492491B2, “Insecticide composition including a synergistic agent” (priority 2015, dated 2019).)
